Source: patent US8263598B2, “Substituted sulfonamide compounds” (Gruenenthal GmbH, priority 2008, dated 2012)

Columns and labels:
[1] = biological target: T1, B1R receptor of rats (rB1R) (Rattus norvegicus, UniProt P97583); assay: FLIPR Ca2+ assay on rat bradykinin 1 receptor (CHO K1 rB1R cells); assay type: cell-based; conditions: test substance 10 μM; CHO K1 cells with B1R gene of rats; agonist Des-Arg9-bradykinin 100 nM; compared to maximum achievable inhibition
T1 construct: host or cells: CHO K1 cells
T1 sequence (P97583 1-337): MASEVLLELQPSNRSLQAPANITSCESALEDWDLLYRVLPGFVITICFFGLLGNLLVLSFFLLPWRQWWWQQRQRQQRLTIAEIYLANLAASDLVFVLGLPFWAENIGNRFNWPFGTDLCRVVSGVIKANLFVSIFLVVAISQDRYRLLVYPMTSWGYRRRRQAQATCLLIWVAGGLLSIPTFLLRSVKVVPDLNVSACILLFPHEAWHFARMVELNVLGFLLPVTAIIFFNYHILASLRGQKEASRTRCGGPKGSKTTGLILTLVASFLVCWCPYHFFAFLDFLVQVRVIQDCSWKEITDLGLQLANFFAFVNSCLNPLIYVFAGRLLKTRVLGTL
Description: (§1) The agonistic or antagonistic action of compounds can be quantified on the bradykinin 1 receptor (B1R) of humans and rats with ectopically expressing cell lines (CHO K1 cells) and with the aid of a Ca^2+-sensitive dye (Fluo-4) in the fluorescent imaging plate reader (FLIPR). The figure in percent activation refers to the Ca^2+ signal after addition of Lys-Des-Arg^9-bradykinin (0.5 nM) and Des-Arg^9-bradykinin (100 nM). Antagonists result in a suppression of the Ca^2+ inflow after the addition of the agonist. Percent inhibition values are given in comparison to the maximum achievable inhibition.
(§2) The agonistic or antagonistic action of substances can be determined on the bradykinin 1 receptor (B1R) of humans and rats by means of the following assay.
(§3) According to this assay the Ca^2+ inflow through the channel is quantified by means of a Ca^2+-sensitive dye (Fluo-4 type, Molecular Probes Europe BV, Leiden, Netherlands), in a Fluorescent Imaging Plate Reader (FLIPR, Molecular Devices, Sunnyvale, USA). Method:
(§4) Chinese hamster ovary cells (CHO K1 cells) are used, which are stably transfected with the human B1R gene (hB1R cells, Euroscreen s.a., Gosselies, Belgium), or with the B1R gene of rats (rB1R cells, Axxam, Milan, Italy). For functional investigations these cells are plated out on black 96-well plates with a clear floor (BD Biosciences, Heidelberg, Germany) in a density of 20,000/25,000 cells/well. The cells are incubated overnight with 10 vol. % FBS (foetal bovine serum, Gibco Invitrogen GmbH, Karlsruhe, Germany) at 37° C. and 5% CO2 in a culture medium (hB1R cells: Nutrient Mixture Ham's F12, Gibco Invitrogen GmbH, Karlsruhe, Germany; rB1R cells: D-MEM/F12, Gibco Invitrogen GmbH, Karlsruhe, Germany). The following day the cells are charged for 60 minutes at 37° C. with 2.13 μM Fluo-4 (Molecular Probes Europe BV, Leiden, Netherlands) in HBSS buffer (Hank's buffered saline solution, Gibco Invitrogen GmbH, Karlsruhe, Germany) together with […] (Sigma-Aldrich, Taufkirchen, Germany) and 10 mM HEPES (Sigma-Aldrich, Taufkirchen, Germany).
(§5) The plates are then washed twice with HBSS buffer and HBSS buffer is added which additionally contains 0.1% BSA (bovine serum albumin; Sigma-Aldrich, Taufkirchen, Germany), 5.6 mM glucose and 0.05% gelatin (Merck KGaA, Darmstadt, Germany). After further incubation for 20 minutes at room temperature the plates are used for the Ca^2+ measurement in the FLIPR. The Ca^2+-dependent fluorescence is measured both before and after the addition of substances (λex=488 nm, λem=540 nm). The quantification is carried out by measuring the highest fluorescence intensity (FC, fluorescence counts) over time.
(§6) The FLIPR protocol consists of two substance additions. First of all test substances (10 μM) are pipetted onto the cells and the Ca^2+ inflow is compared with the control (hB1R: Lys-Des-Arg9-bradykinin 0.5 nM; rB1R: Des-Arg9-bradykinin 100 nM). This gives the result in percent activation referred to the Ca^2+ signal after addition of Lys-Des-Arg9-bradykinin (0.5 nM), bzw. Des-Arg9-bradykinin (100 nM). After 10 minutes' incubation 0.5 nM Lys-Des-Arg9-bradykinin (hB1R) and 100 nM Des-Arg^9-bradykinin (rB1R) are applied and the inflow of Ca^2+ is likewise determined. Antagonists lead to a suppression of the Ca^2+ inflow. The percent inhibition compared to the maximum achievable inhibition is calculated. The compounds show a good activity on both human and rat receptors.
(§7) The agonistic and antagonistic action of the compounds according to the invention on the bradykinin 1 receptor (B1R) of humans and rats were determined as described above. Antagonists lead to a suppression of the Ca^2+ inflow. The % inhibition compared to the maximum achievable inhibition was calculated.

[2] = biological target: T2, human B1R receptor (hB1R) (Homo sapiens, UniProt P46663); assay: FLIPR Ca2+ assay on human bradykinin 1 receptor (CHO K1 hB1R cells); assay type: cell-based; conditions: test substance 10 μM; CHO K1 cells with human B1R gene; agonist Lys-Des-Arg9-bradykinin 0.5 nM; compared to maximum achievable inhibition
T2 construct: host or cells: CHO K1 cells
T2 sequence (P46663 1-353): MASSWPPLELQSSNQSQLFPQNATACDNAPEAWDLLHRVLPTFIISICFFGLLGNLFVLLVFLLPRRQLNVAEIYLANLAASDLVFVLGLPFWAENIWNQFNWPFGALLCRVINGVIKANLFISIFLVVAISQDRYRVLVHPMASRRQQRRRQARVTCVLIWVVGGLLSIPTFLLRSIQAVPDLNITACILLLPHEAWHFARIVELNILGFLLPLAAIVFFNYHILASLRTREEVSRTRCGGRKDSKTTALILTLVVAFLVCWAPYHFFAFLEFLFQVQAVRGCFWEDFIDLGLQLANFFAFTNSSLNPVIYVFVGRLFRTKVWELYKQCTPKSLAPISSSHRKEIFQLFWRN
Description: as §1, §2, §3, §4, §5, §6, §7

| Compound | inhibition at 10 µM [1] [%] | inhibition at 10 µM [2] [%] |
| --- | --- | --- |
| CCC1c2ccc(CN(C)C)n2CCN1C(=O)COCCN(CC(C)C)S(=O)(=O)c1c(C)cc(OC)c(C)c1C (stereo not shown) [Example 99, N-(2-(2-(6-((dimethylamino)methyl)-1-ethyl-3,4-dihydropyrrolo[1,2-a]pyrazin-2(1H)-yl)-2-oxoethoxy)ethyl)-N-isobutyl-4-methoxy-2,3,6-trimethylbenzene-sulfonamide] | 101 | 102 |
| COc1cc(C)c(S(=O)(=O)N(CCOCC(=O)N2CCn3c(CN4CCCCC4)ccc3C2c2ccccc2)CC(C)C)c(C)c1C (stereo not shown) [Example 93, N-isobutyl-4-methoxy-2,3,6-trimethyl-N-(2-(2-oxo-2-(1-phenyl-6-(piperidin-1-ylmethyl)-3,4-dihydropyrrolo[1,2-a]pyrazin-2(1H)-yl)ethoxy)ethyl)benzene-sulfonamide] | 102 | 103 |
| COc1cc(C)c(S(=O)(=O)N(C)CCOCC(=O)N2CCn3c(CN4CCCCC4)nnc3C2)c(C)c1 [Example 163, 4-Methoxy-N,2,6-trimethyl-N-(2-(2-oxo-2-(3-(piperidin-1-ylmethyl)-5,6-dihydro-[1,2,4]triazolo[4,3-a]pyrazin-7(8H)-yl)ethoxy)ethyl)benzenesulfonamide] | 103 | – |
| CCCCC1c2ccc(CN(C)C)n2CCN1C(=O)COCCN(CC(C)C)S(=O)(=O)c1c(C)cc(OC)c(C)c1C (stereo not shown) [Example 97, N-(2-(2-(1-butyl-6-((dimethylamino)methyl)-3,4-dihydropyrrolo[1,2-a]pyrazin-2(1H)-yl)-2-oxoethoxy)ethyl)-N-isobutyl-4-methoxy-2,3,6-trimethylbenzene-sulfonamide] | 102 | 89 |
| COc1c(C)cc(S(=O)(=O)N(C)CCOCC(=O)N2CCn3c(CN4CCCC4)ccc3C2c2ccccc2)c(C)c1C (stereo not shown) [Example 106, 4-methoxy-N,2,3,5-tetramethyl-N-(2-(2-oxo-2-(1-phenyl-6-(pyrrolidin-1-ylmethyl)-3,4-dihydropyrrolo[1,2-a]pyrazin-2(1H)-yl)ethoxy)ethyl)benzene-sulfonamide] | 101 | 99 |
| O=C(C[C@@H](NS(=O)(=O)c1ccc2ccccc2c1)c1ccccc1)N1CCn2c(CN3CCCCC3)nnc2C1 [Example 164, (R)-N-(3-oxo-1-phenyl-3-(3-(piperidin-1-ylmethyl)-5,6-dihydro-[1,2,4]triazolo[4,3-a]pyrazin-7(8H)-yl)propyl)naphthalene-2-sulfonamide] | 102 | – |

Now from value to compound:

| inhibition at 10 µM [1] [%] | inhibition at 10 µM [2] [%] | Compound |
| --- | --- | --- |
| 98 | 99 | COc1cc(C)c(S(=O)(=O)N(C)CCOCC(=O)N2CCn3c(CCc4cccnc4)ccc3C2)c(C)c1 [Example 170, 4-Methoxy-N,2,6-trimethyl-N-(2-(2-oxo-2-(6-(2-(pyridin-3-yl)ethyl)-3,4-dihydropyrrolo[1,2-a]pyrazin-2(1H)-yl)ethoxy)ethyl)benzenesulfonamide] |
| 48 | 81 | COc1c(C)cc(S(=O)(=O)N(C)CCOCC(=O)N2CCn3cccc3C2c2cccc(F)c2)c(C)c1C (stereo not shown) [Example 35, N-(2-(2-(1-(3-fluorophenyl)-3,4-dihydropyrrolo[1,2-a]pyrazin-2(1H)-yl)-2-oxoethoxy)ethyl)-4-methoxy-N,2,3,5-tetramethylbenzenesulfonamide] |
| 104 | 104 | COc1cc(C)c(S(=O)(=O)N(C)CCOCC(=O)N2CCn3c(CN4CCCCC4)ccc3C2c2ccccc2)c(C)c1C (stereo not shown) [Example 149, 4-methoxy-N,2,3,6-tetramethyl-N-(2-(2-oxo-2-(1-phenyl-6-(piperidin-1-ylmethyl)-3,4-dihydropyrrolo[1,2-a]pyrazin-2(1H)-yl)ethoxy)ethyl)benzene-sulfonamide] |
| 99 | 100 | COc1cc(C)c(S(=O)(=O)N(C)CCOCC(=O)N2CCn3c(Cc4ccncc4)ccc3C2)c(C)c1 [Example 165, 4-Methoxy-N,2,6-trimethyl-N-(2-(2-oxo-2-(6-(pyridin-4-ylmethyl)-3,4-dihydropyrrolo[1,2-a]pyrazin-2(1H)-yl)ethoxy)ethyl)benzenesulfonamide] |
| 53 | 71 | Cc1cc(C)c(S(=O)(=O)N(C)CCOCC(=O)N2CCn3cccc3C2c2ccc(C(F)(F)F)cc2F)c(C)c1 (stereo not shown) [Example 77, N-(2-(2-(1-(2-fluoro-4-(trifluoromethyl)phenyl)-3,4-dihydropyrrolo[1,2-a]pyrazin-2(1H)-yl)-2-oxoethoxy)ethyl)-N,2,4,6-tetramethylbenzenesulfonamide] |
| 71 | 91 | COc1cc(C)c(S(=O)(=O)N(C)CCOCC(=O)N2CCn3cccc3C2c2ccc(C)c(C)c2)c(C)c1C (stereo not shown) [Example 86, N-(2-(2-(1-(3,4-dimethylphenyl)-3,4-dihydropyrrolo[1,2-a]pyrazin-2(1H)-yl)-2-oxoethoxy)ethyl)-4-methoxy-N,2,3,6-tetramethylbenzenesulfonamide] |
| 79 | 96 | COc1c(C)cc(S(=O)(=O)N(C)CCOCC(=O)N2CCn3cccc3C2c2cccnc2)c(C)c1C (stereo not shown) [Example 29, 4-methoxy-N,2,3,5-tetramethyl-N-(2-(2-oxo-2-(1-(pyridin-3-yl)-3,4-dihydropyrrolo[1,2-a]pyrazin-2(1H)-yl)ethoxy)ethyl)benzenesulfonamide] |
| 95 | 95 | Cc1cc(C)c(S(=O)(=O)N(C)CCOCC(=O)N2CCn3cccc3C2c2ccc(F)c(F)c2)c(C)c1 (stereo not shown) [Example 71, N-(2-(2-(1-(3,4-difluorophenyl)-3,4-dihydropyrrolo[1,2-a]pyrazin-2(1H)-yl)-2-oxoethoxy)ethyl)-N,2,4,6-tetramethylbenzenesulfonamide] |
| 100 | 42 | COc1ccc(C2c3cccn3CCN2C(=O)COCCN(Cc2ccccc2)S(=O)(=O)c2c(C)cc(OC)cc2C)cc1 (stereo not shown) [Example 47, N-benzyl-4-methoxy-N-(2-(2-(1-(4-methoxyphenyl)-3,4-dihydropyrrolo[1,2-a]pyrazin-2(1H)-yl)-2-oxoethoxy)ethyl)-2,6-dimethylbenzenesulfonamide] |
